The values below come from patent publication US10646498B2, “Composition for preventing, alleviating or treating muscle diseases or improving muscular function” (AAT COSTECH CO., LTD., priority 2015, dated 2020).

One assay deals with atrogin-1. Briefly: atrogin-1 mRNA expression in TNF-α-treated L6 muscle cells (RT-PCR), muscle protein degradation. The class given is cell-based. The settings on record: differentiated L6 muscle cells, 50 ng/mL TNF-α, fucosterol 1 and 10 μM, 6 hours, FIG. 6. The method, then:
(§1) As muscle cells, L6 myoblasts (ATCC) were added to a 6-well plate at a density of 2×10^5 cells/mL together with DMEM (Hyclone) supplemented with 10% FBS (Hyclone). When the cell density reached approximately 80 to 85%, the medium contained in the wells was removed, and the cells were treated with DMEM (Hyclone) supplemented with 2% HS (Hyclone) to induce myotube differentiation. Cell differentiation was performed for a total of 6 days while replacing the medium with a fresh medium every 2 days. After the differentiation, the fucosterol isolated and purified in Example 3 was dissolved at concentrations of 1 and 10 μM in DMEM (Hyclone) supplemented with 50 ng/mL of tumor necrosis factor alpha (TNF-α; PeproTech, Rocky Hills, N.J., USA), and the cells were then treated with the fucosterol. After 6 hours, total RNA was isolated using a TRIzol reagent (Invitrogen). The isolated total RNA was quantified using NanoDrop 1000 (Thermo Fisher Scientific Inc., MA, USA). 16 μL of the quantified RNA was synthesized into cDNA using Reverse Transcriptase Premix (ELPIS-Biotech) and a PCR machine (Gene Amp PCR System 2700; Applied Biosystems) under conditions of 42° C. and 55 minutes and 70° C. and 15 minutes. […]

In another assay the test system is p-mTOR. The assay is described as follows: p-mTOR protein expression in L6 muscle cells (Western blot). The assay is classed as cell-based. The settings on record: fucosterol 10 μM, treated every 2 days for 6 days, vs 0.01% DMSO control, FIG. 1. The protocol:
As muscle cells, L6 myoblasts (ATCC CRL-1458, Manassas, Va., USA) were added to a 6-well plate at a density of 2×10^5 cells/mL together with a Dulbecco's modified Eagle's medium (DMEM; Hyclone) supplemented with 10% fetal bovine serum (FBS; Hyclone, Logan, Utah, USA). […] The supernatant was quantified using a Bradford method (Bradford, Bio-Rad Laboratories Inc., Hercules, Calif., USA). The quantified proteins were boiled for 5 minutes, and separated through 10% SDS-PAGE, and the separated proteins were transferred to a nitrocellulose membrane. […]
Muscle cells were treated with the ultra-high pressure extract of Sargassum fulvellum prepared in Example 1-6, the supercritical fluid extract of Sargassum fulvellum prepared in Example 1-7, the subcritical fluid extract of Sargassum fulvellum prepared in Example 1-8, the ultra-high pressure extract of Sargassum fusiforme prepared in Example 2-6, the supercritical fluid extract of Sargassum fusiforme prepared in Example 2-7, and the subcritical fluid extract of Sargassum fusiforme prepared in Example 2-8 at a concentration of 20 ppm in the same manner as in Example 4. A p-mTOR protein band was chromogenically developed using an ECL Western blotting detection reagent (Amersham, Tokyo, Japan), and a density of the chromogenically developed protein band was measured using a G;BOX EF imaging system (Syngene, Cambridge, UK). […]
Background: In western blotting, separated proteins are transferred to a membrane and probed.

A further assay deals with p-p70S6K. The assay is described as follows: p-p70S6K protein expression in L6 muscle cells (Western blot). The assay is classed as cell-based. The conditions noted are these: fucosterol 1 and 10 μM, FIG. 2. The protocol: (§2) As muscle cells, L6 myoblasts (ATCC CRL-1458, Manassas, Va., USA) were added to a 6-well plate at a density of 2×10^5 cells/mL together with a Dulbecco's modified Eagle's medium (DMEM; Hyclone) supplemented with 10% fetal bovine serum (FBS; Hyclone, Logan, Utah, USA). […] In this case, a group in which the cells were treated with 0.01% DMSO instead of the sample was used as the control. This procedure was carried out at an interval of 2 days for 6 days to differentiate the cells, and the cells were then dissolved in an NP-40 buffer (ELPIS-Biotech, Daejeon, Korea) containing a proteinase inhibitor cocktail. The cells lysed in the buffer were transferred to a 1.5 ml tube, and centrifuged at 13,000 rpm for 10 minutes to collect only a supernatant. The supernatant was quantified using a Bradford method (Bradford, Bio-Rad Laboratories Inc., Hercules, Calif., USA). The quantified proteins were boiled for 5 minutes, and separated through 10% SDS-PAGE, and the separated proteins were transferred to a nitrocellulose membrane. A p-mTOR primary antibody (Cell Signaling Technology, Beverly, Mass., USA) was diluted with 2.5% bovine serum albumin (BSA) at a ratio of 1:1,000, and reacted with the proteins transferred to the nitrocellulose membrane at room temperature for 20 hours. […]

Another assay has as its system MyoD. Briefly: MyoD mRNA expression in L6 muscle cells (RT-PCR), muscle differentiation. The assay is classed as cell-based. The conditions noted are these: fucosterol 1 and 10 μM, 6 days, vs 0.01% DMSO control, FIG. 3. The protocol:
(§3) As muscle cells, L6 myoblasts (ATCC) were added to a 6-well plate at a density of 2×10^5 cells/mL together with DMEM (Hyclone) supplemented with 10% FBS (Hyclone). When the cell density reached approximately 80 to 85%, the medium contained in the wells was removed, and the fucosterol isolated and purified in Example 3 was dissolved at concentrations of 1 and 10 μM in DMEM (Hyclone) supplemented with 2% HS (Hyclone), and the cells were treated with the fucosterol to induce myotube differentiation. In this case, a group in which the cells were treated with 0.01% DMSO instead of the sample was used as the control. This procedure was carried out at an interval of 2 days for 6 days to differentiate the cells, and total RNA was isolated using a TRIzol reagent (Invitrogen, Carlsbad, Calif., USA). The isolated total RNA was quantified using NanoDrop 1000 (Thermo Fisher Scientific Inc., MA, USA). 16 μL of the quantified RNA was synthesized into cDNA using Reverse Transcriptase Premix (ELPIS-Biotech) and a PCR machine (Gene Amp PCR System 2700, Applied Biosystems, MA, USA) under conditions of 42° C. and 55 minutes and 70° C. and 15 minutes. […]

For another assay, the system named is myogenin. The assay is described as follows: myogenin mRNA expression in L6 muscle cells (RT-PCR), muscle differentiation. The class given is cell-based. The conditions noted are these: fucosterol 1 and 10 μM, 6 days, vs 0.01% DMSO control, FIG. 3. The method, then: as §3
In another assay the test system is p-4EBP1. The assay is described as follows: p-4EBP1 protein expression in L6 muscle cells (Western blot). The class given is cell-based. The conditions noted are these: fucosterol 1 and 10 μM, FIG. 2. The protocol: as §2
For assay [1], the system named is Wistar rats with TNF-α-induced muscle atrophy. The conditions noted are these: 300 mg/kg, 1344 h. The protocol: Five-week-old Wistar rats (Daehan Biolink, Korea) were adapted for one week, and fed 100 ng/g of TNF-α for 2 weeks to induce muscle atrophy. Thereafter, the rats were randomly divided into a total of 6 groups based on the weights thereof, each group consisting of 8 rats, which were then used in this experiment. […] In this case, a group in which TNF-α was added to the same amount of 0.25% carboxymethyl cellulose which the experimental group ingested was used as the control.
After the sample was administered for 8 weeks, muscles were incised from right lower calves of the rats, and weighed using a microbalance (Mettler PE160, USA).

The subject of the next assay is MuRF-1. Briefly: MuRF-1 mRNA expression in TNF-α-treated L6 muscle cells (RT-PCR), muscle protein degradation. The settings on record: differentiated L6 muscle cells, 50 ng/mL TNF-α, fucosterol 1 and 10 μM, 6 hours, FIG. 6. The class given is cell-based. The method, then: as §1

Take `C/C=C(\CC[C@@H](C)[C@H]1CC[C@H]2[C@@H]3CC=C4C[C@@H](O)CC[C@]4(C)[C@H]3CC[C@]12C)C(C)C` [Fucosterol, (3-beta,24E)-stigmasta-5,24(28)-dien-3-ol]: in the assay on atrogin-1, the “mRNA expression of atrogin-1” value is recorded as “decreased”. In addition, in the assay with p-mTOR, the “expression level of p-mTOR” value is “increased”. Also, the “protein expression level of p-p70S6K” value with p-p70S6K was “increased”. In addition, the “mRNA expression of MyoD” value in the assay with MyoD is “increased”. In the assay on myogenin, the “mRNA expression of myogenin” value is “increased”. In the assay with p-4EBP1, the “protein expression level of p-4EBP1” value was “increased”. In addition, in assay [1], the “Mean weight of calf muscles” value was 522.1 ± 30.6 mg and the “increase in weights of the muscles compared to the control” value was 25.78%. For the same compound, in the assay with MuRF-1, the “mRNA expression of MuRF-1” value is “decreased”.
